Laboratory results: patent US20040053282A1, “Method of examining allergic disease” (priority 2000, published 2004)

Key:
[1] = test system: mouse intersectin 2 gene; test: Intersectin 2 gene expression in ear tissue of DNFB-coated mouse allergic reaction model (TaqMan, ABI 7700); assay type: in vivo; settings: mouse ear tissue mRNA, day 6, corrected with 18S gene, value of CONT. taken as 1; four mice each; prednisolone oral day 0 to day 6
Method: Using a 2,4-dinitrofluorobenzene (DNFB) coated mouse as a model for an allergic reaction, changes in the expression level of the intersectin 2 gene in the mouse were observed. DNFB is a substance that is used as a hapten to cause allergic dermatitis reaction in a laboratory animal such as a mouse.
Day 0: The abdominal region was shaved by an electric clipper and 25 μL of the sensitizing solution was applied to the abdominal region.
Day 1: In a similar manner to the previous day, 25 μL of the sensitizing solution was applied to the abdominal region.
Day 5: 5 μL/ear of challenge solution was applied to both ears. […]
The expression level of the intersectin 2 gene was quantified by the TaqMan method (as mentioned above) using ABI 7700 and using mRNA sample extracted from the mouse ear tissue. […]
PCR was carried out using 25 μL of 2× Master Mix without UNG, 1.25 μL of 40×MultiScribe and RNase Inhibitor Mix, 0.25 μL of 10 μM primer, and 0.625 μL of 4 μM TaqMan Probe derived from One-step RT-PCR Master Mix Reagents (PE Biosystems), and RNA (2 ng)+DEPC resulting in total volume of 50 μL. […] To correct the differences of cDNA concentration among the samples, a similar quantitative analysis was performed on the 18S gene, and the value for the gene of interest was divided by the value for 18S, and indicated as taking the value of CONT. as 1. […]

[2] = test system: "1835-17" (intersectin 2 gene); test: Change in gene expression in human peripheral blood eosinophils due to stimulation by cytokines (TaqMan, ABI 7700); assay type: cell-based; settings: eosinophils of a healthy subject, cytokine 0.1, 1 and 10 ng/ml, 3 hours culture, GAPDH corrected, FIG. 4
Method: The change in gene expression due to cytokine stimulation in eosinophils isolated from 100 ml of peripheral blood from a healthy subject was studied. Isolation of eosinophils was carried out as described above. Eosinophils were plated onto a 24-well plate (1×10^6 cells/mL). The plate was pre-coated with 1% BSA (immobilizing blocking buffer) at room temperature for 2 hours in order to prevent activation due to adhesion of eosinophils. As cytokines, 0.1, 1, and 10 ng/ml each of interleukin 5 (IL-5), interleukin 4 (IL-4), interferon γ (IFNγ), granulocyte macrophage colony stimulating factor (GM-CSF), and eotaxin were added to each well, and this was cultured for 3 hours in DMEM supplemented with 10% FCS. All of these cytokines are those considered to be related to activation of eosinophils and onset of allergies.
RNAs were prepared in the same manner as in Example 1 for each of the treated eosinophils, and were subjected to gene expression analysis. The primers, probes, and such used were the same as described above. The result at 3 hours after starting the culture is shown in FIG. 4 (value was corrected with GAPDH for the number of copies per 1 ng of RNA).

Row | Molecule | relative expression level of intersectin 2 gene (Average) [1] | expression of "1835-17" (intersectin 2 gene) [2]
1 | C[C@]12C=CC(=O)C=C1CC[C@@H]1[C@@H]2[C@@H](O)C[C@@]2(C)[C@H]1CC[C@]2(O)C(=O)CO [S, prednisolone] | 1.04 | 
2 | IL-5: cytokine interleukin 5 |  | increases
3 | O=[N+]([O-])c1ccc(F)c([N+](=O)[O-])c1 [DNFB, 2,4-dinitrofluorobenzene] | 2.04 | 
4 | IFNγ: cytokine interferon γ (protein, UniProt P01579 24-161, looked up) Interferon gamma: QDPYVKEAENLKKYFNAGHSDVADNGTLFLGILKNWKEESDRKIMQSQIVSFYFKLFKNFKDDQSIQKSVETIKEDMNVKFFNSNKKKRDDFEKLTNYSVTDLNVQRKAIHELIQVMAELSPAAKTGKRKRSQMLFRG |  | induced
5 | IL-4: cytokine interleukin 4 (protein, UniProt P05112 25-153, looked up) Interleukin-4: HKCDITLQEIIKTLNSLTEQKTLCTELTVTDIFAASKNTTEKETFCRAATVLRQFYSHHEKDTRCLGATAQQFHRHKQLIRFLKRLDRNLWGLAGLNSCPVKEANQSTLENFLERLKTIMREKYSKCSS |  | induced
